# Patent publication US12552772B2, “2-pyrazole anilines and related analogs for inhibiting YAP/TAZ-TEAD” (KATHOLIEKE UNIVERSITEIT LEUVEN, priority 2021, dated 2026)
# Tested on: YAP/TAZ-TEAD transcription
# Test: Reporter gene assay for measuring the inhibition of YAP/TAZ-TEAD transcription (TEAD-responsive element luciferase reporter in Hek293T cells)
# Assay type: cell-based
# Conditions: Homo sapiens, HEK-293T, 24 hours incubation
# Protocol: Hek293T cells are cultured in DMEM supplemented with 10% fetal bovine serum, Sodium pyruvate, Sodium bicarbonate, L-glutamine. The cells are harvested and transiently transfected with TEAD-responsive element luciferase reporter. Transfected cells are plated in 384-wells plate containing pre-diluted compounds. After 24 hours incubation at 37° C./5% CO2, assay plates were cooled down to RT and levelled to an equal volume per well, prior to the addition of 25 uL luciferase substrate SteadyLite (Perkin Elmer)/well. The plate was shaken for 10 min at 600 rpm, centrifuged for 1 min at 500 rpm and measured with an Envision reader (PerkinElmer). The amount of relative light units produced by the TEAD reporter is used to calculated percent of inhibition.
# The percent of reporter inhibition was calculated in the presence of a positive control inhibitor (100% inhibition) versus a condition with the presence of the vehicle basal activity of the reporter (0% inhibition). The ability of a test compound to inhibit this activity was determined as: Percentage inhibition=[1−((RLU determined in the presence of vehicle−RLU determined for sample with test compound present) divided by (RLU determined in the presence of vehicle−RLU determined for sample with positive control inhibitor))]*100
# The activities of the example compounds tested are depicted in the table below. The activity ranges A, B and C refer to EC50 values in the reporter gene assay as described as follows: “A”: EC50<1 μM; “B”: 1 μM s EC50≤20 μM and “C”: EC50>20 μM, NT=not tested.
row,EC50,Structure (SMILES)
1,< 1 µM,"C=CC(=O)NCc1[nH]c(=O)c(-c2ccc(F)cc2)cc1-c1ccn(C)n1 [Cpd. No. 234, N-((5-(4-fluorophenyl)-3-(1-methyl-1H-pyrazol-3-yl)-6-oxo-1,6-dihydropyridin-2-yl)methyl)acrylamide]"
2,> 20 µM,"C=CC(=O)NCc1cc(=O)n(-c2ccc(F)cc2)cc1-c1ccn(C)n1 [Cpd. No. 235, N-((1-(4-fluorophenyl)-5-(1-methyl-1H-pyrazol-3-yl)-2-oxo-1,2-dihydropyridin-4-yl)methyl)acrylamide]"
3,< 1 µM,"C=CC(=O)NCc1cnc(-c2ccc(F)cc2)cc1-n1cccn1 [Cpd. No. 239, N-((6-(4-fluorophenyl)-4-(1H-pyrazol-1-yl)pyridin-3-yl)methyl)acrylamide]"
4,< 1 µM,"C=CC(=O)NC1CC1c1ccc(-c2ccccc2)cc1-c1ccn(C)n1 (stereo not drawn) [Cpd. No. 257, N-(2-(3-(1-methyl-1H-pyrazol-3-yl)-[1,1′-biphenyl]-4-yl)cyclopropyl)acrylamide]"
5,< 1 µM,"C=CC(=O)N1CCC(c2cc(-c3ccc(F)cc3)nc(-c3ccn(C(F)F)n3)c2)C1 (stereo not drawn) [Cpd. No. 264, 1-(3-(2-(1-(difluoromethyl)-1H-pyrazol-3-yl)-6-(4-fluorophenyl)pyridin-4-yl)pyrrolidin-1-yl)prop-2-en-1-one]"
6,> 20 µM,"O=C(O)c1cncc(-c2cccc(-c3ccn(Cc4ccccc4)n3)c2)c1 [compound 001, 5-(3-(1-benzyl-1H-pyrazol-3-yl)phenyl)nicotinic acid]"
7,1 to 20 µM,"N#Cc1cncc(-c2cccc(-c3ccn(Cc4ccccc4)n3)c2)c1 [compound 005, 5-(3-(1-benzyl-1H-pyrazol-3-yl)phenyl)nicotinonitrile]"
8,1 to 20 µM,"CCC(=O)Nc1cncc(-c2cccc(-c3ccn(Cc4ccccc4)n3)c2)c1 [compound 006, N-(5-(3-(1-benzyl-1H-pyrazol-3-yl)phenyl)pyridin-3-yl)propionamide]"
9,< 1 µM,"C=CC(=O)Nc1cc(-c2cccc(-c3ccn(Cc4ccccc4)n3)c2)ccn1 [compound 009, N-(4-(3-(1-benzyl-1H-pyrazol-3-yl)phenyl)pyridin-2-yl)acrylamide]"
10,1 to 20 µM,"C=CC(=O)Nc1cncc(-c2cccc(-c3ccn(Cc4ccc(C(F)(F)F)cc4)n3)c2)c1 [compound 011, N-(5-(3-(1-(4-(trifluoromethyl)benzyl)-1H-pyrazol-3-yl)phenyl)pyridin-3-yl)acrylamide]"
11,1 to 20 µM,"Fc1cccc(Cn2ccc(-c3cccc(-c4ccccc4)c3)n2)c1 [compound 018, 3-([1,1′-biphenyl]-3-yl)-1-(3-fluorobenzyl)-1H-pyrazole]"
12,1 to 20 µM,"c1ccc(-c2cccc(-c3ccn(Cc4ccccn4)n3)c2)cc1 [compound 021, 2-((3-([1,1′-biphenyl]-3-yl)-1H-pyrazol-1-yl)methyl)pyridine]"
13,1 to 20 µM,"c1ccc(-c2cccc(-c3ccn(Cc4ccncc4)n3)c2)cc1 [compound 022, 4-((3-([1,1′-biphenyl]-3-yl)-1H-pyrazol-1-yl)methyl)pyridine]"
14,1 to 20 µM,c1ccc(-c2cccc(-c3ccn(CCc4cccnc4)n3)c2)cc1 [compound 023]

# Second part, the molecule before the results:
row,Structure (SMILES),EC50
1,"C=CC(=O)NCc1cnc(-c2ccc(F)cc2)cc1-c1cnn(C(F)F)c1 [Cpd. No. 224, N-((4-(1-(difluoromethyl)-1H-pyrazol-4-yl)-6-(4-fluorophenyl)pyridin-3-yl)methyl)acrylamide]",1 to 20 µM
2,"C=CC(=O)NCc1cnc(-c2ccc(F)cc2)cc1-c1cn(C(F)F)nn1 [Cpd. No. 229, N-((4-(1-(difluoromethyl)-1H-1,2,3-triazol-4-yl)-6-(4-fluorophenyl)pyridin-3-yl)methyl)acrylamide]",< 1 µM
3,"C=CC(=O)NCc1c(-c2ccn(C)n2)cc(-c2ccc(F)cc2)[nH]c1=O [Cpd. No. 233, N-((6-(4-fluorophenyl)-4-(1-methyl-1H-pyrazol-3-yl)-2-oxo-1,2-dihydropyridin-3-yl)methyl)acrylamide]",> 20 µM
4,"C=CC(=O)NC1(c2ccc(-c3ccc(F)cc3)cc2-c2ccn(C)n2)CC1 [Cpd. No. 256, N-(1-(4′-fluoro-3-(1-methyl-1H-pyrazol-3-yl)-[1,1′-biphenyl]-4-yl)cyclopropyl)acrylamide]",< 1 µM
5,"C=CC(=O)N1CCC(c2cc(-c3ccc(F)cc3)cc(-c3ccn(C(F)F)n3)n2)C1 (stereo not drawn) [Cpd. No. 265, 1-(3-(6-(1-(difluoromethyl)-1H-pyrazol-3-yl)-4-(4-fluorophenyl)pyridin-2-yl)pyrrolidin-1-yl)prop-2-en-1-one]",< 1 µM
6,"NC(=O)c1cncc(-c2cccc(-c3ccn(Cc4ccccc4)n3)c2)c1 [compound 002, 5-(3-(1-benzyl-1H-pyrazol-3-yl)phenyl)nicotinamide]",< 1 µM
7,"Nc1cncc(-c2cccc(-c3ccn(Cc4ccccc4)n3)c2)c1 [compound 003, 5-(3-(1-benzyl-1H-pyrazol-3-yl)phenyl)pyridin-3-amine]",1 to 20 µM
8,"CC(=O)Nc1cncc(-c2cccc(-c3ccn(Cc4ccccc4)n3)c2)c1 [compound 007, N-(5-(3-(1-benzyl-1H-pyrazol-3-yl)phenyl)pyridin-3-yl)acetamide]",< 1 µM
9,"C=CC(=O)Nc1ccccc1-c1cccc(-c2ccn(Cc3ccccc3)n2)c1 [compound 008, N-(3′-(1-benzyl-1H-pyrazol-3-yl)-[1,1′-biphenyl]-2-yl)acrylamide]",1 to 20 µM
10,"C=CC(=O)Nc1ccc(-c2cccc(-c3ccn(Cc4ccccc4)n3)c2)cn1 [compound 010, N-(5-(3-(1-benzyl-1H-pyrazol-3-yl)phenyl)pyridin-2-yl)acrylamide]",1 to 20 µM
11,"C=CC(=O)Nc1cncc(-c2cccc(-c3ccn(Cc4cccc(C(F)(F)F)c4)n3)c2)c1 [compound 012, N-(5-(3-(1-(3-(trifluoromethyl)benzyl)-1H-pyrazol-3-yl)phenyl)pyridin-3-yl)acrylamide]",1 to 20 µM
12,"C=CC(=O)Nc1cncc(-c2cccc(-c3ccn(C)n3)c2)c1 [compound 013, N-(5-(3-(1-methyl-1H-pyrazol-3-yl)phenyl)pyridin-3-yl)acrylamide]",1 to 20 µM
13,"c1ccc(-c2cccc(-c3ccn(Cc4cccnc4)n3)c2)cc1 [compound 014, 3-((3-([1,1′-biphenyl]-3-yl)-1H-pyrazol-1-yl)methyl)pyridine]",1 to 20 µM
14,"c1ccc(-c2cccc(-c3ccnn3Cc3cccnc3)c2)cc1 [compound 015, 3-((5-([1,1′-biphenyl]-3-yl)-1H-pyrazol-1-yl)methyl)pyridine]",> 20 µM
15,"c1ccc(Cn2ccc(-c3cccc(-c4cncnc4)c3)n2)cc1 [compound 016, 5-(3-(1-benzyl-1H-pyrazol-3-yl)phenyl)pyrimidine]",1 to 20 µM
16,"c1ccc(Cn2nccc2-c2cccc(-c3cncnc3)c2)cc1 [compound 017, 5-(3-(1-benzyl-1H-pyrazol-5-yl)phenyl)pyrimidine]",1 to 20 µM
17,"COc1cccc(Cn2ccc(-c3cccc(-c4ccccc4)c3)n2)c1 [compound 019, 3-([1,1′-biphenyl]-3-yl)-1-(3-methoxybenzyl)-1H-pyrazole]",1 to 20 µM
18,"N#Cc1cccc(Cn2ccc(-c3cccc(-c4ccccc4)c3)n2)c1 [compound 020, 3-((3-([1,1′-biphenyl]-3-yl)-1H-pyrazol-1-yl)methyl)benzonitrile]",1 to 20 µM
19,"Cn1ccc(Cn2ccc(-c3cccc(-c4ccccc4)c3)n2)cc1=O [compound 024, 4-((3-([1,1′-biphenyl]-3-yl)-1H-pyrazol-1-yl)methyl)-1-methylpyridin-2(1H)-one]",1 to 20 µM
